Measured values published in ChEMBL document CHEMBL4011599, “Coumarin sulfonates: New alkaline phosphatase inhibitors; in vitro and in silico studies” (Eur J Med Chem, 2017).

What was measured:
[1] = target: T1, Alkaline phosphatase, tissue-nonspecific isozyme (Homo sapiens, UniProt P05186); test: Inhibition of human TNAP using CDP-star as substrate pretreated for 10 mins followed by substrate addition measured after 10 mins by […] method
T1 sequence (P05186 whole entry): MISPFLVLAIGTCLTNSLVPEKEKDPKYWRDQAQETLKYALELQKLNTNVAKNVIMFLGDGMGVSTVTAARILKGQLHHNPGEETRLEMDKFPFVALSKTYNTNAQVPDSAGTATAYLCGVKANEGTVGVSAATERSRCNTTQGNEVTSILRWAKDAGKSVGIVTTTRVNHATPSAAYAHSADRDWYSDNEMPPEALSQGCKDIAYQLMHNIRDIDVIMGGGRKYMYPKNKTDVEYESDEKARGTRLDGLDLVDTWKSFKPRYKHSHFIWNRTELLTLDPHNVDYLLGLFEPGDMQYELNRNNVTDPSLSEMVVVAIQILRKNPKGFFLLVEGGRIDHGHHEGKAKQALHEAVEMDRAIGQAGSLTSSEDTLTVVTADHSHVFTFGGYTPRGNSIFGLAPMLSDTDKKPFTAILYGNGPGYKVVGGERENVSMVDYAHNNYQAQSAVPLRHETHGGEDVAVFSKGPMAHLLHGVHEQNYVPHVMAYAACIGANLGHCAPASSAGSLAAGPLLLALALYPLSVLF

[2] = target: T2, Intestinal-type alkaline phosphatase (Homo sapiens, UniProt P09923); test: Inhibition of human IAP using CDP-star as substrate pretreated for 10 mins followed by substrate addition measured after 10 mins by […] method
Target sequence in this assay (P09923 whole entry): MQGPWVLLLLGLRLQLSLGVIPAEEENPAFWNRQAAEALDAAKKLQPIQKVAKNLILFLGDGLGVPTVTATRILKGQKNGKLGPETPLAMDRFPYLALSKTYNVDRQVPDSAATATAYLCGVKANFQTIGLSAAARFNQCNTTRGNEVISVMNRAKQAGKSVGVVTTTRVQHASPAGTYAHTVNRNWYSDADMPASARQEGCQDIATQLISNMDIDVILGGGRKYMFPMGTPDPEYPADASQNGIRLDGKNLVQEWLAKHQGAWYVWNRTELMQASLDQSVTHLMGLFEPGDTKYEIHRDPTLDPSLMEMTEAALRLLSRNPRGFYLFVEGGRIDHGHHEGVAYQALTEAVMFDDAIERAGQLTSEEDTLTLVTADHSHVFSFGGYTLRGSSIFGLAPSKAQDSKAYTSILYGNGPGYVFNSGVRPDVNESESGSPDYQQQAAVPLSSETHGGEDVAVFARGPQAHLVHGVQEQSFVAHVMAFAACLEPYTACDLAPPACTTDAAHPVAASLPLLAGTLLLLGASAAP

[3] = target: T2, Intestinal-type alkaline phosphatase; test: Potency index, ratio of levamisole IC50 to compound IC50 for human IAP
Target sequence in this assay (P09923 20-503 limits assumed): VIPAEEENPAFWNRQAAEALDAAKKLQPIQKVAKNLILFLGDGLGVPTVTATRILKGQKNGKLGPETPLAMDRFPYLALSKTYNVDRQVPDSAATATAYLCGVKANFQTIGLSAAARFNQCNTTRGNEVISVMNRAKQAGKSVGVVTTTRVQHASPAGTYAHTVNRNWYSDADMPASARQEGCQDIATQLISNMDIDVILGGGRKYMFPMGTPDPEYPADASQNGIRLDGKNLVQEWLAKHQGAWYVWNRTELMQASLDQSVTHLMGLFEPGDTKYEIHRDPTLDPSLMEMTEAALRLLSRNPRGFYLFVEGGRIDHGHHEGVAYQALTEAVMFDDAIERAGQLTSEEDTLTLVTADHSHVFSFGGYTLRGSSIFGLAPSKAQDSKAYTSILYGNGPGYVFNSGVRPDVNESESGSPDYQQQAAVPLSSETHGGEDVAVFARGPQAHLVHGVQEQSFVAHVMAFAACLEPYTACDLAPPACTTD

| Structure (SMILES) | IC50 ([1]; read-out: IC50) | IC50 [2] | IC50 ([2]; read-out: IC50) | Ratio IC50 [3] | IC50 [1] |
| --- | --- | --- | --- | --- | --- |
| Cc1c(C#N)c(=O)oc2cc(OS(=O)(=O)c3cc(Cl)ccc3Cl)ccc12 | 2470 nM | – | 2260 nM | – | – |
| Cc1c(C#N)c(=O)oc2cc(OS(=O)(=O)c3ccccc3)ccc12 | 3530 nM | Not Active | – | – | – |
| c1ccc([C@H]2CN3CCSC3=N2)cc1 [LEVAMISOLE] | – | – | 20200 nM | – | – |
| CCS(=O)(=O)Oc1ccc2c(C)c(C#N)c(=O)oc2c1 | – | – | 4060 nM | – | Not Active |
| N[C@@H](Cc1ccccc1)C(=O)O [PHENYLALANINE] | 100000 nM | – | – | – | – |
| Cc1cc(=O)oc2cc(OS(=O)(=O)c3ccc(Cl)c([N+](=O)[O-])c3)ccc12 | 2310 nM | – | 2720 nM | – | – |
| Cc1c(Cl)c(=O)oc2cc(OS(=O)(=O)c3ccccc3)ccc12 | 10300 nM | – | 5520 nM | – | – |
| Cc1c(C#N)c(=O)oc2cc(OS(=O)(=O)c3cccc([N+](=O)[O-])c3)ccc12 | 2420 nM | – | 5160 nM | – | – |

Now from value to compound:

| IC50 ([1]; read-out: IC50) | IC50 [2] | IC50 ([2]; read-out: IC50) | Ratio IC50 [3] | IC50 [1] | Structure (SMILES) |
| --- | --- | --- | --- | --- | --- |
| 1990 nM | Not Active | – | – | – | Cc1c(C#N)c(=O)oc2cc(OS(C)(=O)=O)ccc12 |
| 1640 nM | – | 3220 nM | – | – | CCCCS(=O)(=O)Oc1ccc2c(C)c(Cl)c(=O)oc2c1 |
| 920 nM | – | 10300 nM | – | – | CCCCCCCCS(=O)(=O)Oc1ccc2c(C)cc(=O)oc2c1OS(=O)(=O)CCCCCCCC |
| 920 nM | – | 2810 nM | 7 | – | CCCCCCCCS(=O)(=O)Oc1ccc2c(C)c(C#N)c(=O)oc2c1 |
